These results are taken from PubChem BioAssay AID292 (DTP/NCI, 2004).

In this experiment the test system is B6C3F1 mice, ip Sarcoma M5076, median survival T/C. The experiment can be described thus: NCI In Vivo Anticancer Drug Screen. Data for tumor model Sarcoma M5076 (intraperitoneal) in B6C3F1 mice. The note with it: endpoint: median survival time, higher = longer survival. The essentials:
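Survival measured in treated (T) and vehicle control (C) mice with transplantable tumour; result given as T divided by C.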

[1] abbreviates: dose: 25.0 mg/kg/injection, schedule: Q04DX004 (ip), vehicle: saline with Tween-80.
Setting [2] is: dose: 50.0 mg/kg/injection, schedule: Q04DX004 (ip), vehicle: saline with Tween-80.
Where [3] appears, read: dose: 100.0 mg/kg/injection, schedule: Q04DX004 (ip), vehicle: saline with Tween-80.
Setting [4] is: dose: 200.0 mg/kg/injection, schedule: Q04DX004 (ip), vehicle: saline with Tween-80.
Setting [5] is: dose: 400.0 mg/kg/injection, schedule: Q04DX004 (ip), vehicle: saline with Tween-80.
Setting [6] is: dose: 25.0 mg/kg/injection, schedule: Q04DX004 (ip), vehicle: saline.
The mark [7] stands for this setting: dose: 50.0 mg/kg/injection, schedule: Q04DX004 (ip), vehicle: saline.
The mark [8] stands for this setting: dose: 100.0 mg/kg/injection, schedule: Q04DX004 (ip), vehicle: saline.

Each structure is given as a SMILES string. Where “and” joins values, the source holds several entries; their conditions need not be identical. Identical values can stand only once. Inconclusive results and toxic doses are left out.

Take `COc1ccc(/C=N/NC(=O)c2ccc(OCc3nc4ccccc4[nH]3)cc2)cc1`: the T/C was 99 % of control under setting [1]; 100 % of control under setting [2]; 103 % of control under setting [3]; 97 % of control under setting [4]; 97 % of control under setting [5].

Turning to `C=C(Cl)C(=NC(C)(C)C)Nc1ccccc1C`, the T/C is, setting by setting: (dose: 3.0 mg/kg/injection, schedule: Q04DX004 (ip), vehicle: Klucel (hydroxypropylcellulose) (HPC)) 98 % of control; (dose: 6.0 mg/kg/injection, schedule: Q04DX004 (ip), vehicle: Klucel (hydroxypropylcellulose) (HPC)) 116 % of control; (dose: 6.25 mg/kg/injection, schedule: Q04DX004 (ip), vehicle: Klucel (hydroxypropylcellulose) (HPC)) 108 % of control; (dose: 12.0 mg/kg/injection, schedule: Q04DX004 (ip), vehicle: Klucel (hydroxypropylcellulose) (HPC)) 103 % of control; (dose: 24.0 mg/kg/injection, schedule: Q04DX004 (ip), vehicle: Klucel (hydroxypropylcellulose) (HPC)) 98 % of control; (dose: 25.0 mg/kg/injection, schedule: Q04DX004 (ip), vehicle: Klucel (hydroxypropylcellulose) (HPC)) 117 % of control. Besides, where the note is “dose: 48.0 mg/kg/injection, schedule: Q04DX004 (ip), vehicle: Klucel (hydroxypropylcellulose) (HPC)”, the T/C is 104 % of control.

For the molecule `Cc1ccc(C(=O)Nc2ccc(S(=O)(=O)O)c3cc(S(=O)(=O)O)cc(S(=O)(=O)O)c23)cc1NC(=O)c1cccc(NC(=O)Nc2cccc(C(=O)Nc3cc(C(=O)Nc4ccc(S(=O)(=O)O)c5cc(S(=O)(=O)O)cc(S(=O)(=O)O)c45)ccc3C)c2)c1`, the T/C runs as follows: under setting [6], 105 % of control; under setting [7], 108 % of control and 109 % of control; under setting [8], 112 % of control.

For `Cc1ccc(Nc2nnc(CSc3ccc(Cl)cc3)s2)c(S(=O)(=O)O)c1`, the T/C runs as follows: (dose: 37.5 mg/kg/injection, schedule: Q04DX004 (ip), vehicle: saline with Tween-80) 99 % of control; (dose: 75.0 mg/kg/injection, schedule: Q04DX004 (ip), vehicle: saline with Tween-80) 87 % of control; (dose: 150.0 mg/kg/injection, schedule: Q04DX004 (ip), vehicle: saline with Tween-80) 91 % of control.

As for `CCCCCCCC(=O)[O][Hg][CH2]C1COC([CH2][Hg][O]C(=O)CCCCCCC)CO1` (stereo not given), the T/C by setting is: (dose: 6.25 mg/kg/injection, schedule: Q04DX004 (ip), vehicle: saline with Tween-80) 95 % of control; (dose: 12.5 mg/kg/injection, schedule: Q04DX004 (ip), vehicle: saline with Tween-80) 86 % of control; under setting [1], 86 % of control and 87 % of control; under setting [2], 87 % of control and 90 % of control; under setting [3], 87 % of control.

As for `COCCCNC1=C(C#N)C(=O)NC2(CCCC2)S1`, the T/C runs as follows: under setting [2], 97 % of control; under setting [3], 97 % of control; under setting [4], 97 % of control; under setting [5], 90 % of control.

On to `O=C(O)CC1C(=O)OC2C3COC(=O)c4cc(O)c(O)c(O)c4-c4c(cc(O)c(O)c4O)C(=O)OC2C(OC(=O)c2cc(O)c(O)c4c2C1C(O)C(=O)O4)C(OC(=O)c1cc(O)c(O)c(O)c1)O3` (stereo not given), for which the T/C (dose: 6.25 mg/kg/injection, schedule: Q04DX004 (ip), vehicle: saline) is 89 % of control; the T/C (dose: 12.5 mg/kg/injection, schedule: Q04DX004 (ip), vehicle: saline) is 96 % of control; the T/C under setting [6] was 97 % of control; the T/C (dose: 25.0 mg/kg/injection, schedule: Q04DX004 (ip), vehicle: suspension in saline) was 96 % of control; the T/C under setting [7] is 104 % of control; the T/C (dose: 50.0 mg/kg/injection, schedule: Q04DX004 (ip), vehicle: suspension in saline) is 97 % of control. The T/C is, setting by setting: under setting [8], 96 % of control; (dose: 100.0 mg/kg/injection, schedule: Q04DX004 (ip), vehicle: suspension in saline) 100 % of control.

`CSC1SCC2C(=O)N(C)C(C(C)C)C(=O)OCC(NC(=O)c3cnc4ccccc4n3)C(=O)NC(C)C(=O)N(C)C1C(=O)N(C)C(C(C)C)C(=O)OCC(NC(=O)c1cnc3ccccc3n1)C(=O)NC(C)C(=O)N2C` (stereo not given): the T/C by setting is: (dose: 12.5 micrograms/kg/injection, schedule: Q04DX004 (ip), vehicle: saline with Tween-80) 100 % of control; (dose: 25.0 micrograms/kg/injection, schedule: Q04DX004 (ip), vehicle: saline with Tween-80) 104 % of control; (dose: 50.0 micrograms/kg/injection, schedule: Q04DX004 (ip), vehicle: saline with Tween-80) 110 % of control and 111 % of control; (dose: 100.0 micrograms/kg/injection, schedule: Q04DX004 (ip), vehicle: saline with Tween-80) 114 % of control; (dose: 200.0 micrograms/kg/injection, schedule: Q04DX004 (ip), vehicle: saline with Tween-80) 123 % of control.

For `CN(C)N=Nc1ccc(C(=O)O)cc1`, the T/C was 122 % of control under setting [6]; 153 % of control and 159 % of control and 169 % of control under setting [7]; 168 % of control and 178 % of control and 181 % of control under setting [8].

As to `CC(CNC(=O)C12CC3CC(CC(C3)C1)C2)NC(=O)C12CC3CC(CC(C3)C1)C2` (stereo not given), the T/C was 94 % of control (dose: 25.0 mg/kg/injection, schedule: Q04DX004 (ip), vehicle: other); 98 % of control (dose: 50.0 mg/kg/injection, schedule: Q04DX004 (ip), vehicle: other); 90 % of control (dose: 100.0 mg/kg/injection, schedule: Q04DX004 (ip), vehicle: other); 98 % of control (dose: 200.0 mg/kg/injection, schedule: Q04DX004 (ip), vehicle: other).

Turning to `Cc1ccoc1`, the T/C (dose: 16.8 mg/kg/injection, schedule: Q03HX012 (ip), vehicle: saline with Tween-80) is 101 % of control; the T/C (dose: 33.3 mg/kg/injection, schedule: Q03HX012 (ip), vehicle: saline with Tween-80) was 93 % of control; the T/C (dose: 66.6 mg/kg/injection, schedule: Q03HX012 (ip), vehicle: saline with Tween-80) is 96 % of control; the T/C (dose: 133.3 mg/kg/injection, schedule: Q03HX012 (ip), vehicle: saline with Tween-80) is 100 % of control.

Regarding `COc1ccc(-n2c(SCC(=O)NC(=O)Nc3ccccc3)nc3c(Br)cc(Br)cc3c2=O)cc1`, the T/C by setting is: (dose: 37.5 mg/kg/injection, schedule: Q04DX004 (ip), vehicle: Klucel (hydroxypropylcellulose) (HPC)) 91 % of control; (dose: 75.0 mg/kg/injection, schedule: Q04DX004 (ip), vehicle: Klucel (hydroxypropylcellulose) (HPC)) 93 % of control; (dose: 150.0 mg/kg/injection, schedule: Q04DX004 (ip), vehicle: Klucel (hydroxypropylcellulose) (HPC)) 89 % of control; (dose: 600.0 mg/kg/injection, schedule: Q04DX004 (ip), vehicle: Klucel (hydroxypropylcellulose) (HPC)) 90 % of control.
